Like-named read-outs stand apart in the source and are kept apart here.
Key:
[1] = target: T1, DDR1 (Homo sapiens, UniProt Q08345); experiment: LanthaScreen Europium Kinase Binding assay, DDR1
T1 construct: purchased Carna Biosciences
Experimental: (§1) DDR1 and DDR2 binding assays were performed using Life Technologies LanthaScreen™ Europium Kinase Binding assay. […] IC50 values were determined in GraphPad Prism 7.0 software, using 4 parameter model: log (inhibitor) vs. response. IC50 values were converted in Ki using the Cheng-Prusoff equation (Ki-IC50/(1+ [Tracer]/Kd).

[2] = target: T2, DDR2 (Homo sapiens, UniProt Q16832); experiment: LanthaScreen Europium Kinase Binding assay, DDR2
T2 construct: purchased Life Technologies
T2 sequence (Q16832 22-855): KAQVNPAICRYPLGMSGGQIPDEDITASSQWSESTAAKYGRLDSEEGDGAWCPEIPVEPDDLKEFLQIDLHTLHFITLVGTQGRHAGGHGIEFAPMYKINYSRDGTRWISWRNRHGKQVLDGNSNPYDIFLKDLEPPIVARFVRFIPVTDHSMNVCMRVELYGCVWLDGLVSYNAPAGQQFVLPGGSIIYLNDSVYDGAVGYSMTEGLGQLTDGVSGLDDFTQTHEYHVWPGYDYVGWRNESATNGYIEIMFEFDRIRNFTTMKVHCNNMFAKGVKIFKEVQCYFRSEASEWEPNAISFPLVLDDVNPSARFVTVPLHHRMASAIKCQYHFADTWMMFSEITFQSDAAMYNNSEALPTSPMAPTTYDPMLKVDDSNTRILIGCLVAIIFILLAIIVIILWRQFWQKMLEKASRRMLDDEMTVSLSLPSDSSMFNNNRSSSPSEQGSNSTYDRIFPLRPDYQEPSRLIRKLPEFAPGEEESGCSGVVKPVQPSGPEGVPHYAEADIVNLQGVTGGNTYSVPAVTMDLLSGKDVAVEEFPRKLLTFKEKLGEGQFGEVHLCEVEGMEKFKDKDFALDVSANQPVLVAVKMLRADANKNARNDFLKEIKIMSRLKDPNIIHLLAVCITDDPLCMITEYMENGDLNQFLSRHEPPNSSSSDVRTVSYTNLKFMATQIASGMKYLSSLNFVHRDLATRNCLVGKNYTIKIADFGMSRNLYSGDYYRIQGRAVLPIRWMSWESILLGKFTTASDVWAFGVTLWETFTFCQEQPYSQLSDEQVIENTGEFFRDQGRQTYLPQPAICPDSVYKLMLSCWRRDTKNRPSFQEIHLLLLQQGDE
Experimental: as §1

[3] = 5 nM DDR1, 20 nM Kinase Tracer 178, 1 h at rt, Ki from IC50 by Cheng-Prusoff, read-out: Ki DDR1
[4] = 5 nM DDR2, 10 nM Kinase Tracer 178, 1 h at rt, Ki from IC50 by Cheng-Prusoff, read-out: Ki DDR2
[5] = same binding assay, numeric values

T1 sequence (Q08345 19-913): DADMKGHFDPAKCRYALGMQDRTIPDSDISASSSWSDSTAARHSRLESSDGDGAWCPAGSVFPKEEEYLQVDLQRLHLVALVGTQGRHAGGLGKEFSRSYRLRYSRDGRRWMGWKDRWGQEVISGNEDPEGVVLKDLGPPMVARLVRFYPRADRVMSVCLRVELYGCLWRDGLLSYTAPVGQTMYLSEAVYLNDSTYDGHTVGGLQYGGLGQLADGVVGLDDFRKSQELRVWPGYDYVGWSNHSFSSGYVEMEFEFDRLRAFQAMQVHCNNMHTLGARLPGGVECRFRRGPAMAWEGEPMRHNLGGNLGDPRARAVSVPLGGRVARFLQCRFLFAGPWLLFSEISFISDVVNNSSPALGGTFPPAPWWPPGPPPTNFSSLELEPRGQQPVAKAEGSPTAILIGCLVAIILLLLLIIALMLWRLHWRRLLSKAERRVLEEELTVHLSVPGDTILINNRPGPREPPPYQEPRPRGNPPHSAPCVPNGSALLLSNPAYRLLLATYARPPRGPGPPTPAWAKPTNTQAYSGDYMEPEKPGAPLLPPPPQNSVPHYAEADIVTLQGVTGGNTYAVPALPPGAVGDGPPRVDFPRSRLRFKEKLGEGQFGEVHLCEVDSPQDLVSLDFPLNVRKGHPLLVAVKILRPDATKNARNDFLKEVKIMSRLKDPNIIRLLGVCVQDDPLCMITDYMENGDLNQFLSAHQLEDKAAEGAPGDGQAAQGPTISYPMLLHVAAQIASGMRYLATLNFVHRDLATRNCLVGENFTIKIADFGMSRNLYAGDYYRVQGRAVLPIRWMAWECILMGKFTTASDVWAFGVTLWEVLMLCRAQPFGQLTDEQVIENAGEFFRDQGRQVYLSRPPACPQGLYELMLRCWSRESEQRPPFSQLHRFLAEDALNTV

Compound	Ki [1, 3] [nM]	Ki [2, 4] [nM]	also measured
Cc1cc(C(F)(F)F)cc(NC(=O)N(C)C2CC3(C2)CN(C(=O)c2cnn4ccn(C)c24)C3)c1F [Example 193, 3-(2-fluoro-3-methyl-5-(trifluoromethyl)phenyl)-1-methyl-1-(2-(1-methyl-1H-imidazo[1,2-b]pyrazole-7-carbonyl)-2-azaspiro[3.3]heptan-6-yl)urea]	< 5	5 to 25	
Cn1ccn2ncc(C(=O)N3CC4(CC(OC(=O)Nc5cc(C(F)(F)F)ccn5)C4)C3)c12 [Example 296, 2-(1-methyl-1H-imidazo[1,2-b]pyrazole-7-carbonyl)-2-azaspiro[3.3]heptan-6-yl(4-(trifluoromethyl)pyridin-2-yl)carbamate]	< 5	5 to 25	
O=C(Nc1cccc(SC(F)(F)F)c1)NC1CC2(C1)CN(C(=O)c1ccnc3[nH]ncc13)C2 [Example 162, 1-(2-(1H-pyrazolo[3,4-b]pyridine-4-carbonyl)-2-azaspiro[3.3]heptan-6-yl)-3-(3-((trifluoromethyl)thio)phenyl)urea]	< 5	< 5	
CN(C(=O)Nc1cncc(OC(F)(F)F)c1)C1CC2(C1)CN(C(=O)c1cnn3ccn(C)c13)C2 [Example 172, 1-methyl-1-(2-(1-methyl-1H-imidazo[1,2-b]pyrazole-7-carbonyl)-2-azaspiro[3.3]heptan-6-yl)-3-(5-(trifluoromethoxy)pyridin-3-yl)urea]	< 5	5 to 25	
Cc1cc(C(F)(F)F)cc(NC(=O)N(C)C2CC3(C2)CN(C(=O)c2cnn4ccn(C)c24)C3)n1 [Example 300, 1-methyl-1-(2-(1-methyl-1H-imidazo[1,2-b]pyrazole-7-carbonyl)-2-azaspiro[3.3]heptan-6-yl)-3-(6-methyl-4-(trifluoromethyl)pyridin-2-yl)urea]	< 5	5 to 25	
CN(C(=O)Nc1cc(C(F)(F)F)cc(Br)n1)C1CC2(C1)CN(C(=O)c1cnn3ccn(C)c13)C2 [Example 308, 3-(6-bromo-4-(trifluoromethyl)pyridin-2-yl)-1-methyl-1-(2-(1-methyl-1H-imidazo[1,2-b]pyrazole-7-carbonyl)-2-azaspiro[3.3]heptan-6-yl)urea]	< 5	< 5	
Cc1ccc(-n2nc(C(C)(C)C)cc2NC(=O)NC2CC3(C2)CN(C(=O)c2cnn4ccn(C)c24)C3)cc1 [Example 43, 1-(3-(tert-butyl)-1-(p-tolyl)-1H-pyrazol-5-yl)-3-(2-(1-methyl-1H-imidazo[1,2-b]pyrazole-7-carbonyl)-2-azaspiro[3.3]heptan-6-yl)urea]	< 5	5 to 25	
O=C(Nc1cccc(S(F)(F)(F)(F)F)c1)NC1CC2(C1)CN(C(=O)c1ccnc3[nH]ncc13)C2 [Example 120, 1-(2-(1H-pyrazolo[3,4-b]pyridine-4-carbonyl)-2-azaspiro[3.3]heptan-6-yl)-3-(3-(pentafluoro-16-sulfaneyl)phenyl)urea]	< 5	< 5	
Cc1ncc(NC(=O)NC2CC3(C2)CN(C(=O)c2cnn4ccn(C)c24)C3)cc1C(F)(F)F [Example 181, 1-(2-(1-methyl-1H-imidazo[1,2-b]pyrazole-7-carbonyl)-2-azaspiro[3.3]heptan-6-yl)-3-(6-methyl-5-(trifluoromethyl)pyridin-3-yl)urea]	< 5	5 to 25	
CN(C(=O)Nc1cc(C#N)cc(C(F)(F)F)c1)C1CC2(C1)CN(C(=O)c1cnn3ccn(C)c13)C2 [Example 53, 3-(3-cyano-5-(trifluoromethyl)phenyl)-1-methyl-1-(2-(1-methyl-1H-imidazo[1,2-b]pyrazole-7-carbonyl)-2-azaspiro[3.3]heptan-6-yl)urea]	< 5	5 to 25	
Cn1cc(-c2ccc3c(C(=O)N4CC5(CC(NC(=O)Nc6cccc(C(F)(F)F)c6)C5)C4)cnn3c2)cn1 [Example 182, 1-(2-(6-(1-methyl-1H-pyrazol-4-yl)pyrazolo[1,5-a]pyridine-3-carbonyl)-2-azaspiro[3.3]heptan-6-yl)-3-(3-(trifluoromethyl)phenyl)urea]	< 5	< 5	
O=C(Cc1cccc(C(F)(F)F)c1)NC1CC2(C1)CN(C(=O)c1cnn3ccncc13)C2 [Example C2, N-(2-(pyrazolo[1,5-a]pyrazine-3-carbonyl)-2-azaspiro[3.3]heptan-6-yl)-2-(3-(trifluoromethyl)phenyl)acetamide, reference compound]			DDR1 Ki (nM) [1, 5]: did not show a binding affinity; Ki ([1]; same binding assay, numeric values, read-out: DDR1 Ki): > 500 nM; DDR2 Ki (nM) [2, 5]: did not show a binding affinity; Ki ([2]; same binding assay, numeric values, read-out: DDR2 Ki): > 500 nM
COCCn1ccn2ncc(C(=O)N3CC4(CC(N(C)C(=O)Nc5cc(OC(F)(F)F)ccn5)C4)C3)c12 [Example 202, 1-(2-(1-(2-methoxyethyl)-1H-imidazo[1,2-b]pyrazole-7-carbonyl)-2-azaspiro[3.3]heptan-6-yl)-1-methyl-3-(4-(trifluoromethoxy)pyridin-2-yl)urea]	< 5	25 to 100	
O=C(Nc1cncc(C(F)(F)F)c1)NC1CC2(C1)CN(C(=O)c1ccnc3ccsc13)C2 [Example 49, 1-(2-(thieno[3,2-b]pyridine-7-carbonyl)-2-azaspiro[3.3]heptan-6-yl)-3-(5-(trifluoromethyl)pyridin-3-yl)urea]	< 5	< 5	
CN(C(=O)Nc1cc(C(F)(F)F)ccn1)C1CC2(C1)CN(C(=O)c1cnn3ccn(C)c13)C2 [Example 129, 1-methyl-1-(2-(1-methyl-1H-imidazo[1,2-b]pyrazole-7-carbonyl)-2-azaspiro[3.3]heptan-6-yl)-3-(4-(trifluoromethyl)pyridin-2-yl)urea]	< 5	5 to 25	
CN(C(=O)Nc1cc(C(F)(F)F)ccn1)C1CC2(C1)CN(C(=O)c1cnn3ccccc13)C2 [Example 238, 1-methyl-1-(2-(pyrazolo[1,5-a]pyridine-3-carbonyl)-2-azaspiro[3.3]heptan-6-yl)-3-(4-(trifluoromethyl)pyridin-2-yl)urea]	< 5	5 to 25	
Cn1nc(NC(=O)NC2CC3(C2)CN(C(=O)c2ncnc4ccsc24)C3)cc1C(C)(C)C [Example 100, 1-(5-(tert-butyl)-1-methyl-1H-pyrazol-3-yl)-3-(2-(thieno[3,2-d]pyrimidine-4-carbonyl)-2-azaspiro[3.3]heptan-6-yl)urea]	< 5	5 to 25	
CN(C(=O)Nc1cc(OC(F)(F)F)ccn1)C1CC2(C1)CN(C(=O)c1ccnc3[nH]ncc13)C2 [Example 189, 1-(2-(1H-pyrazolo[3,4-b]pyridine-4-carbonyl)-2-azaspiro[3.3]heptan-6-yl)-1-methyl-3-(4-(trifluoromethoxy)pyridin-2-yl)urea]	5 to 25	5 to 25	
O=C(Nc1cccc(C(F)(F)F)c1)NC1CC2(C1)CN(C(=O)c1cnc3n1CCOC3)C2 [Example 6, 1-(2-(5,6-dihydro-8H-imidazo[2,1-c][1,4]oxazine-3-carbonyl)-2-azaspiro[3.3]heptan-6-yl)-3-(3-(trifluoromethyl)phenyl)urea]	< 5	5 to 25	
CN(C(=O)Nc1cc(C#N)cc(OC(F)(F)F)c1)C1CC2(C1)CN(C(=O)c1cnn3ccn(C)c13)C2 [Example 111, 3-(3-cyano-5-(trifluoromethoxy)phenyl)-1-methyl-1-(2-(1-methyl-1H-imidazo[1,2-b]pyrazole-7-carbonyl)-2-azaspiro[3.3]heptan-6-yl)urea]	< 5	< 5	
Cc1ccc(OC(F)(F)F)cc1NC(=O)NC1CC2(C1)CN(c1cnc3[nH]ncc3c1)C2 [Example 307, 1-(2-(1H-pyrazolo[3,4-b]pyridin-5-yl)-2-azaspiro[3.3]heptan-6-yl)-3-(2-methyl-5-(trifluoromethoxy)phenyl)urea]	5 to 25	25 to 100	
CN(C(=O)Nc1cccc(C(F)(F)C(F)(F)F)c1)C1CC2(C1)CN(C(=O)c1cnn3ccn(C)c13)C2 [Example 117, 1-methyl-1-(2-(1-methyl-1H-imidazo[1,2-b]pyrazole-7-carbonyl)-2-azaspiro[3.3]heptan-6-yl)-3-(3-(perfluoroethyl)phenyl) urea]	< 5	< 5	
Cn1cncc1C(=O)N1CC2(CC(NC(=O)Nc3cccc(C(F)(F)F)c3)C2)C1 [Example 8, 1-(2-(1-methyl-1H-imidazole-5-carbonyl)-2-azaspiro[3.3]heptan-6-yl)-3-(3-(trifluoromethyl)phenyl)urea]	< 5	5 to 25	

Source: US20260285855A1, “HETEROARYL DERIVATIVES AS DDRS INHIBITORS” (CHIESI FARMACEUTICI S.P.A., priority 2023, published 2026)
